Measurements as given in PubChem BioAssay (NCI).
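Cells were grown in 96-well plates and exposed to each compound for 48 hours at five concentrations; endpoints were interpolated linearly between bracketing concentrations, or set to the highest concentration if not reached. The concentration for full growth arrest is given as TGI.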

Experiments:
Test in all cases: NCI anticancer screen, dose series, 48 h
M14 melanoma = test system: M14 melanoma
UO-31 renal = test system: UO-31 renal
SNB-75 CNS = test system: SNB-75 CNS
TK-10 renal = test system: TK-10 renal
A498 renal = test system: A498 renal
OVCAR-5 ovarian = test system: OVCAR-5 ovarian
MCF7 breast = test system: MCF7 breast
RXF 393 renal = test system: RXF 393 renal
SNB-19 CNS = test system: SNB-19 CNS
SF-268 CNS = test system: SF-268 CNS
BT-549 breast = test system: BT-549 breast
OVCAR-3 ovarian = test system: OVCAR-3 ovarian
UACC-62 melanoma = test system: UACC-62 melanoma
T-47D breast = test system: T-47D breast
NCI-H460 lung = test system: NCI-H460 lung
DU-145 prostate = test system: DU-145 prostate
SK-MEL-2 melanoma = test system: SK-MEL-2 melanoma
HOP-92 NSCLC = test system: HOP-92 NSCLC
LOX IMVI melanoma = test system: LOX IMVI melanoma
OVCAR-4 ovarian = test system: OVCAR-4 ovarian

| SMILES | TGI (M14 melanoma) [µM] | TGI (UO-31 renal) [µM] | TGI (SNB-75 CNS) [µM] | TGI (TK-10 renal) [µM] | TGI (A498 renal) [µM] | TGI (OVCAR-5 ovarian) [µM] | TGI (MCF7 breast) [µM] | TGI (RXF 393 renal) [µM] | TGI (SNB-19 CNS) [µM] | TGI (SF-268 CNS) [µM] | TGI (BT-549 breast) [µM] | TGI (OVCAR-3 ovarian) [µM] | TGI (UACC-62 melanoma) [µM] | TGI (T-47D breast) [µM] | TGI (NCI-H460 lung) [µM] | TGI (DU-145 prostate) [µM] | TGI (SK-MEL-2 melanoma) [µM] | TGI (HOP-92 NSCLC) [µM] | TGI (LOX IMVI melanoma) [µM] | TGI (OVCAR-4 ovarian) [µM] |
| --- | --- | --- | --- | --- | --- | --- | --- | --- | --- | --- | --- | --- | --- | --- | --- | --- | --- | --- | --- | --- |
| O=C(NCc1ccc(Cl)c(Cl)c1)c1nc2ccccc2nc1NCc1ccc(Cl)c(Cl)c1 | > 100 | > 100 | > 100 | > 100 | > 100 | > 100 | > 100 | > 100 | > 100 | > 100 | > 100 | > 100 | > 100 | > 100 | > 100 | > 100 | > 100 | > 100 | > 100 | – |
| NNC(=O)COc1nc(-c2cccs2)nc2ccc(I)cc12 | 58.3 | 63.5 | 59 | 44.8 | – | > 100 | 88.7 | > 100 | 39.2 | 70.5 | 38.9 | 40.7 | 45.1 | 21.9 | 70.4 | 50.7 | 71.3 | 61.8 | 36.9 | 77 |
| CC1SCCc2nc3ccccc3n21 (stereo not drawn) | > 100 | > 100 | > 100 | > 100 | > 100 | > 100 | > 100 | > 100 | > 100 | > 100 | > 100 | > 100 | > 100 | > 100 | > 100 | > 100 | > 100 | > 100 | > 100 | > 100 |
| Cn1c(=O)c2c(n(C)c1=O)n1c(=O)c3ccccc3nc1n2C | > 100 | > 100 | > 100 | > 100 | > 100 | > 100 | > 100 | > 100 | > 100 | > 100 | > 100 | > 100 | > 100 | > 100 | – | > 100 | > 100 | > 100 | > 100 | > 100 |
| CCOP(=O)(OCC)/C(C#N)=C(\C)c1ccco1 | > 10 | > 10 | > 10 | > 10 | > 10 | > 10 | > 10 | > 10 | > 10 | > 10 | > 10 | > 10 | > 10 | > 10 | > 10 | > 10 | > 10 | > 10 | > 10 | > 10 |
| COc1ccc(-c2cc(-c3ccc(Nc4ccnc5cc(C(F)(F)F)ccc45)cc3)nc(N)c2C#N)c2ccccc12 | > 100 | > 100 | > 100 | > 100 | > 100 | > 100 | > 100 | > 100 | > 100 | > 100 | > 100 | > 100 | > 100 | > 100 | > 100 | > 100 | > 100 | > 100 | > 100 | > 100 |
| CCCCSC1=N/C(=C\c2ccccc2O)C(Cl)=N1 | > 100 | > 100 | > 100 | > 100 | > 100 | > 100 | > 100 | > 100 | > 100 | > 100 | > 100 | > 100 | > 100 | > 100 | > 100 | > 100 | > 100 | > 100 | > 100 | > 100 |
| O=C1CSC(c2cccc(Oc3ccccc3)c2)N1c1cc(Cl)ccc1Cl (stereo not drawn) | 50.5 | 43.3 | 62.6 | 55.1 | 70.7 | 76.9 | 23 | 40.3 | 56.6 | 39.5 | 35.6 | 51.2 | 31.5 | 89.6 | 43.2 | > 100 | 36.3 | 42.7 | 43.1 | 60.8 |
| CC(C)S1=C2C(=O)CC(C)(C)CC2=Nc2ccccc21 (stereo not drawn) | > 100 | > 100 | > 100 | > 100 | > 100 | > 100 | > 100 | > 100 | > 100 | > 100 | > 100 | > 100 | > 100 | > 100 | > 100 | > 100 | > 100 | > 100 | > 100 | > 100 |
| Nn1c(=S)[nH]nc(/C=C/c2c(O)ccc3ccccc23)c1=O | 41.6 | 34.8 | – | – | 69.9 | 42.5 | 12.6 | – | > 100 | 38.6 | 31.3 | 22.1 | 26.2 | 31.9 | 76.5 | > 100 | > 100 | – | 11.7 | 25 |
| O=C(CCc1ccccc1)NCCc1ccc(O)c(O)c1 | > 100 | 49.2 | > 100 | > 100 | > 100 | > 31.6 | 93.9 | > 100 | > 100 | > 100 | > 49.8 | > 89 | > 100 | > 100 | > 100 | > 100 | 49.5 | > 78.7 | > 100 | 46.7 |
| Nc1nc(Nc2cc(F)c(Cl)c(F)c2)cc(=O)[nH]1 | > 100 | – | 97.9 | > 100 | > 100 | > 100 | > 100 | – | > 100 | > 100 | > 100 | > 100 | > 100 | > 100 | > 100 | > 100 | > 100 | > 100 | > 100 | > 100 |
| CO[C@@H](c1ccccc1)[C@H](O)[C@@](O)(c1ccccc1)P(=O)(OC)OC | > 100 | > 100 | > 100 | > 100 | > 100 | > 100 | > 100 | > 100 | > 100 | > 100 | > 100 | > 100 | > 100 | > 100 | > 100 | > 100 | > 100 | > 100 | > 100 | – |
| Cc1ccc(C(=O)C2CC3(CCC2(O)c2ccc(C)cc2)CC(=O)Nc2ccccc2C3=O)cc1 (stereo not drawn) | > 100 | > 100 | 93.5 | > 100 | > 100 | > 100 | > 100 | > 100 | > 100 | > 100 | > 100 | > 100 | > 100 | > 100 | > 100 | > 100 | > 100 | > 100 | > 100 | – |
| O=P1(C(O)c2ccccc2)N(Cc2ccccc2)[C@@H]2CCCC[C@H]2N1Cc1ccccc1 (stereo partly drawn) | 58.5 | > 100 | 55.1 | > 100 | – | 76.8 | > 100 | > 100 | > 100 | 97.1 | > 100 | 91.3 | > 100 | 85.6 | > 100 | > 100 | 73.7 | – | 32.1 | 53.1 |
| Clc1cc2ncn(C3CCCO3)c2cc1Cl (stereo not drawn) | > 100 | 53.6 | > 100 | > 100 | – | > 100 | > 100 | > 100 | > 100 | > 100 | 86.4 | > 100 | > 100 | > 100 | – | > 100 | > 100 | > 100 | > 100 | > 100 |
| CC(C)(C)OC(=O)NCCCCC1NC(=O)[C@@H]2Cc3c([nH]c4ccccc34)C(c3ccccc3)N2C1=O (stereo partly drawn) | 92.3 | > 100 | – | > 100 | > 100 | > 100 | > 100 | 42.2 | > 100 | > 100 | 68.4 | 49.2 | 95.6 | > 100 | > 100 | > 100 | 50.5 | 85.1 | 56.4 | > 100 |
| COc1ccc(OC)c2c(Nc3ccc(S(=O)(=O)O)c4cc(S(=O)(=O)O)cc(S(=O)(=O)O)c34)cc(C)nc12 | > 100 | > 100 | > 100 | > 100 | > 100 | > 100 | > 100 | > 100 | – | > 100 | > 100 | > 100 | > 100 | > 100 | > 100 | > 100 | > 100 | – | > 100 | > 100 |
| CCN(CC)CCCNc1nnc(C)c2[nH]c3ccccc3c12 | 32.4 | > 100 | 38.8 | 67.2 | 43.1 | 61.3 | > 100 | 38.8 | > 100 | 34.7 | 68 | 37.7 | 27.9 | 68.9 | 30.9 | 59.9 | 33.3 | 55 | 30.9 | – |
| CCOC(=O)C1(NC(=O)OC(C)(C)C)CCc2[nH]oc(=O)c2C1 (stereo not drawn) | > 100 | > 100 | > 100 | > 100 | > 100 | > 100 | > 100 | – | > 100 | – | > 100 | > 100 | > 100 | > 100 | > 100 | > 100 | > 100 | > 100 | > 100 | > 100 |
| Nc1nc(N)c2ncn(Cc3ccccc3)c2n1 | > 100 | > 100 | 0.937 | > 100 | > 100 | > 100 | > 100 | > 100 | > 100 | > 100 | > 100 | > 100 | > 100 | > 100 | – | > 100 | > 100 | > 100 | – | > 100 |
| COc1ccc2c(C=O)c3n(c(=O)c2c1OC)CCc1cc2c(cc1-3)OCO2 | > 100 | > 100 | > 100 | > 100 | > 100 | > 100 | > 100 | 11.3 | > 100 | > 100 | > 100 | > 100 | > 100 | > 100 | > 100 | > 100 | > 100 | 88.5 | – | > 100 |
| CCCCCCCCCCCCCCCC(=O)OCC(COP(=O)(O)OCCNC(=O)CCSSc1ccccn1)OC(=O)CCCCCCCCCCCCCCC (stereo not drawn) | > 100 | > 100 | > 100 | – | > 100 | > 100 | > 100 | > 100 | > 100 | > 100 | > 100 | > 100 | > 100 | > 100 | > 100 | > 100 | > 100 | > 100 | – | > 100 |
| O=C1Cc2c([nH]c3c(Br)cccc23)-c2ccccc2N1 | > 100 | > 100 | > 100 | – | > 100 | > 100 | > 100 | – | > 100 | > 100 | > 100 | > 100 | > 100 | > 100 | > 100 | > 100 | > 100 | – | > 100 | – |
| FC(F)(Sc1nc2ccccc2[nH]1)c1nc2ccccc2o1 | > 100 | > 100 | > 100 | > 100 | > 100 | > 100 | > 100 | > 100 | – | > 100 | > 100 | > 100 | > 100 | > 100 | > 100 | > 100 | > 100 | > 100 | – | > 100 |
